Source: patent US20130310411A1, “NOVEL ACRIDINE DERIVATIVES” (PHARMINOX LIMITED, priority 2010, published 2013)

How the values were obtained:
[1] = test system: HT-29: human adenocarcinoma cell line; test: Growth inhibition assay (MTT); type: cell-based; details: HT-29 cells, 96 hr incubation
Description: Growth inhibition was measured in the HT-29: human adenocarcinoma cell line using the 3-(4,5-Dimethylthiazol-2-yl)-2,5-diphenyltetrazolium bromide (MTT) assay:
Briefly, between 1500 and 2200 cells were seeded into the wells of 96-well microtiter plates and allowed to attach overnight. Test compounds were solubilised at 10 mM in dimethyl sulfoxide (DMSO), diluted in tissue culture media and added to cells at final concentrations of 30, 10, 3, 1, 0.3, 0.1, 0.03 and 0.01 μM in triplicate. Following an incubation period of 96 hr MTT was added to a final concentration of 400 μg/ml and the plates incubated for a further 4 hr. The media/MTT was then aspirated and 150 μl DMSO added. Plates were shaken briefly and the absorbance at 550 nm read using a Labtech LT-4000 plate reader. An extra plate was seeded and the MTT assay was carried out on this plate at the time of drug addition to ascertain an initial absorbance value.
Dose response curves were plotted and the GI50 values (concentration required to inhibit cell growth by 50%) determined for each agent where the absorbance value for control cells minus the initial absorbance was taken as 100% growth.

[2] = test system: hTel, 5′ biotin-d[AG3(T2AG3)3]3′ (quadraplex) versus duplex, 5′biotind[CGA3T3C2TCTGA3T3CG]3′; test: Surface Plasmon Resonance Assay (SPR); type: binding; details: HEPES buffer pH 7.3, 25° C.
Description: Biosensor experiments were conducted in filtered, degassed HEPES buffer (10 mM HEPES, 100 mM KCl, 3 mM EDTA, 0.000 05 v/v of 10% P20 BIACORE surfactant, pH 7.3) at 25° C. The 5′-biotin labeled DNA sequences (Integrated DNA Technologies) were HPLC purified and comprise the following sequences: hTel, ^5′ biotin-d[AG3(T2AG3)3]^3′; duplex, ^5′biotind[CGA3T3C2TCTGA3T3CG]^3′. The experiments were conducted upon a BIAcore 2000 optical biosensor instrument (BIAcore Inc.). Flow cell 1 was left blank as a reference, while flow cells 2-4 were immobilized with DNA on a streptavidin-derivatized gold chip (SA chip from BIAcore) by manual injection of DNA stock solutions (flow rate of 1 μL/min) until the desired value of DNA response was obtained (350-400 RU). Typically, a series of different ligand concentrations (1 nM to 10 μM from 20 mM DMSO stock) were injected onto the chip (flow rate of 50 μL/min, 5-10 min) until a constant steady-state response was obtained followed by a dissociation period (buffer, 10 min). After every cycle, the chip surface was regenerated (20 s injection of 10 mM glycine solution, pH 2.0) followed by running buffer flow. The data were processed using BIAevaluation (BIAcore Inc.) and Kaleidagraph (Synergy Software) software for nonlinear least-squares optimization of the binding parameters.

Q: Which GI50 [1] does the source give for `c1ccc2c(c1)Oc1c3ccccc3nc3cccc-2c13` [Example 1, Chromeno[4,3,2-kl]acridine] here?
A: 10.4 µM

Q: With `C[n+]1c2ccccc2c2c3c(cccc31)-c1ccccc1O2.[Cl-]` [Example 2, 8-Methylchromeno[4,3,2-kl]acridin-8-ium chloride] as the molecule, how does the GI50 [1] read?
A: 0.93 µM

Q: And the “Quadraplex:duplex ratio” value [2]?
A: 4.75

Q: How did the GI50 [1] turn out when `C[n+]1c2ccccc2c2c3c(cccc31)-c1ccccc1S2` [Example 3, 8-methylthiochromeno[4,3,2-kl]acridin-8-ium chloride] was run?
A: 3.04 µM

Q: How did the GI50 [1] turn out when `[O-][n+]1c2ccccc2c2c3c(cccc31)-c1ccccc1O2` [Example 4, chromeno[4,3,2-kl]acridine 8-oxide] was run?
A: > 30 µM

Q: What about the “Quadraplex:duplex ratio” value [2] of the same molecule?
A: 7.5

Q: With `CCOC(=O)C[n+]1c2ccccc2c2c3c(cccc31)-c1ccccc1O2` [Example 5, 8-(2-ethoxy-2-oxoethyl)chromeno[4,3,2-kl]acridin-8-ium iodide] as the molecule, how does the GI50 [1] read?
A: 9.88 µM

Q: `CC(=O)Nc1ccc2c(c1)-c1cccc3nc4ccccc4c(c13)O2` [Example 6, N-(chromeno[4,3,2-kl]acridin-3-yl)acetamide] was tested. Which GI50 [1] did it give?
A: 9.39 µM

Q: For `CC(=O)Nc1ccc2c(c1)-c1cccc3c1c(c1ccccc1[n+]3C)O2` [Example 7, acetamido-8-methylchromeno[4,3,2-kl]acridin-8-ium chloride], which GI50 [1] is on record?
A: 0.95 µM

Q: `COc1ccc2c(c1)-c1cccc3c1c(c1ccccc1[n+]3C)S2` [Example 8, 3-methoxy-8-methylthiochromeno[4,3,2-kl]acridin-8-ium chloride] was tested. Which GI50 [1] did it give?
A: 1.04 µM

Q: With `COc1cccc2c1-c1cccc3c1c(c1ccccc1[n+]3C)S2` [Example 9, 4-methoxy-8-methylthiochromeno[4,3,2-kl]acridin-8-ium iodide] as the molecule, how does the GI50 [1] read?
A: 0.95 µM

Q: With `COc1ccc2c(c1)-c1cccc3c1c(c1ccc(OC)cc1[n+]3C)S2` [Example 10, 3,10-dimethoxy-8-methylthiochromeno[4,3,2-kl]acridin-8-ium chloride] as the molecule, how does the GI50 [1] read?
A: 0.27 µM

Q: And the “Quadraplex:duplex ratio” value [2]?
A: 7.0

Q: What does the source list for `COC(=O)c1ccc2c(c1)Sc1c3ccc(OC)cc3[n+](C)c3cccc-2c13` [Example 11, 10-methoxy-2-(methoxycarbonyl)-8-methylthiochromeno[4,3,2-kl]acridin-8-ium chloride]?
A: GI50 [1]: 0.76 µM; Quadraplex:duplex ratio [2]: 17.4

Q: `COC(=O)c1cccc2c1-c1cccc3c1c(c1ccc(OC)cc1[n+]3C)S2` [Example 12, 10-methoxy-4-(methoxycarbonyl)-8-methylthiochromeno[4,3,2-kl]acridin-8-ium chloride] was tested. Which GI50 [1] did it give?
A: 4.49 µM

Q: What about the “Quadraplex:duplex ratio” value [2] of the same molecule?
A: >53

Q: Which GI50 [1] does the source give for `CC(=O)Oc1ccc2c(c1)-c1cccc3c1c(c1ccccc1[n+]3C)S2` [Example 13, 3-acetoxy-8-methylthiochromeno[4,3,2-kl]acridin-8-ium chloride] here?
A: 6.17 µM

Q: How did the GI50 [1] turn out when `C[n+]1c2ccccc2c2c3c(cccc31)-c1cc(O)ccc1S2` [Example 14, 3-hydroxy-8-methylthiochromeno[4,3,2-kl]acridin-8-ium chloride] was run?
A: 3.67 µM

Q: What about the “Quadraplex:duplex ratio” value [2] of the same molecule?
A: >80

Q: Which results are given for `COC(=O)c1ccc2c(c1)Sc1c3ccccc3[n+](C)c3cccc-2c13` [Example 15, 2-(methoxycarbonyl)-8-methylthiochromeno[4,3,2-kl]acridin-8-ium chloride]?
A: GI50 [1]: 2.99 µM; Quadraplex:duplex ratio [2]: 18.1

Q: `COC(=O)c1cccc2c1-c1cccc3c1c(c1ccccc1[n+]3C)S2` [Example 16, 4-(methoxycarbonyl)-8-methylthiochromeno[4,3,2-kl]acridin-8-ium iodide] was tested. Which GI50 [1] did it give?
A: 12.8 µM

Q: For `COCOc1ccc2c(c1)-c1cccc3nc4ccccc4c(c13)S2` [Example 17, 3-(methoxymethoxy)thiochromeno[4,3,2-kl]acridine], which GI50 [1] is on record?
A: 1.88 µM

Q: How did the GI50 [1] turn out when `CC(=O)Nc1cccc2c1-c1cccc3c1c(c1ccccc1[n+]3C)S2` [Example 18, 4-acetamido-8-methylthiochromeno[4,3,2-kl]acridin-8-ium iodide] was run?
A: 9.66 µM

Q: `COc1ccc2c3c4c(c(OC)ccc4[n+](C)c2c1)-c1ccccc1S3` [Example 19, 5,10-dimethoxy-8-methylthiochromeno[4,3,2-kl]acridin-8-ium iodide] was tested. Which GI50 [1] did it give?
A: 1.03 µM

Q: With `COC(=O)c1ccc2c(c1)-c1cccc3c1c(c1ccccc1[n+]3C)S2` [Example 20, 3-(methoxycarbonyl)-8-methylthiochromeno[4,3,2-kl]acridin-8-ium iodide and chloride] as the molecule, how does the GI50 [1] read?
A: 6.46 µM
